In PubChem BioAssay (NCI):
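Following 48 hours of exposure in 96-well plates, responses at five concentrations were used to interpolate endpoints linearly. The concentration for 50% growth inhibition is given as GI50. At the TGI there is no net growth.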

Key:
Experiment in all cases: NCI-60 cell line screen, 48 h
BT-549 breast = test system: BT-549 breast
NCI-H522 lung = test system: NCI-H522 lung
NCI/ADR-RES ovarian = test system: NCI/ADR-RES ovarian
OVCAR-8 ovarian = test system: OVCAR-8 ovarian
SF-539 CNS = test system: SF-539 CNS
SK-OV-3 ovarian = test system: SK-OV-3 ovarian
SN12C renal = test system: SN12C renal

SMILES | GI50 (BT-549 breast) [µM] | TGI (BT-549 breast) [µM] | GI50 (NCI-H522 lung) [µM] | TGI (NCI-H522 lung) [µM] | GI50 (NCI/ADR-RES ovarian) [µM] | TGI (NCI/ADR-RES ovarian) [µM] | GI50 (OVCAR-8 ovarian) [µM] | TGI (OVCAR-8 ovarian) [µM] | GI50 (SF-539 CNS) [µM] | TGI (SF-539 CNS) [µM] | GI50 (SK-OV-3 ovarian) [µM] | TGI (SK-OV-3 ovarian) [µM] | GI50 (SN12C renal) [µM] | TGI (SN12C renal) [µM]
CC1CN1CC(O)C(O)CN1CC1C (stereo not given) | 6.43 | 87.1 | 1.72 | 7.08 | 1.24 | > 87.1 | 1.13 | > 71.2 | 1.84 | 45.4 | 6.11 | > 100 | 0.692 | > 67.8
O=C(N/N=C/c1cccc(O)c1O)c1ccccc1 | 1.84 | > 73 | 0.323 | 2.25 | 0.648 | > 100 | 0.587 | > 100 | 0.642 | 15.3 | 3.68 | > 100 | 0.73 | > 100
CC(=O)OC1CC(O)C23COC(O)C1(C)C2CC(O)C1(C)C3C(=O)C(O)C2(C)C(c3ccoc3)CC3OC321 (stereo not given) | 0.071 | > 100 | 0.401 | > 100 | 71.9 | > 100 | 0.191 | – | 0.14 | > 100 | > 100 | > 100 | > 100 | > 100
CCCCCCCC(CC(=O)NC(CO)C(=O)NC(CO)CC(C)C)OC(=O)CC(CCCCCCC)OC(=O)CC(CCCCCCC)OC1OC(C)C(O)C(OC2OC(C)C(O)C(OC(C)=O)C2O)C1O (stereo not given) | – | 19.9 | – | 28.4 | – | – | – | 28.3 | – | 24.5 | – | 30.8 | – | 19.9
O=C1c2ccccc2-c2c1c1ccccc1c(=O)n2Cc1ccccc1 | – | > 100 | – | > 100 | – | > 100 | – | > 100 | – | > 100 | – | > 100 | – | > 100
COc1ccc2c(c1)C(=O)c1c-2n(CCCn2ccnc2)c(=O)c2ccccc12 | 0.478 | 3.87 | 0.174 | 5.5 | 0.634 | 5.92 | 0.602 | > 69.2 | 0.244 | 0.906 | 0.595 | 4.59 | 0.692 | > 100
CCOC(=O)c1cc(/C(=N\O)c2cc(OC)c(OC)c(OC)c2)n2cc(C)cc(C)c12 | 4.39 | > 100 | – | – | 2.19 | 7.92 | 5.38 | > 100 | – | – | 1.89 | 4.8 | 3.86 | > 100
CCOC(=O)c1c(CN2CCN(c3ccccc3)CC2)n(-c2ccccc2)c2cc(Br)c(O)cc12 | 8.64 | 23.9 | 16.1 | 44.5 | 12.4 | 41.7 | 9.32 | 57 | 15.5 | 34.9 | 34 | 80.9 | 5.68 | 18.5
COc1ccc(C(=O)c2cc(C)c(OC)c(C)c2)c(OC)c1N(C(=O)C(Cl)Cl)C(=O)C(Cl)Cl | 0.0607 | 2.75 | 0.0322 | – | 0.032 | – | 0.0558 | > 100 | 0.0343 | 0.206 | 0.052 | > 100 | 0.0727 | > 100
CCN1C(=O)CNc2ncc(-c3ccc(-c4ncn[nH]4)nc3C)nc21 | 0.0716 | 0.695 | 0.147 | 2.88 | 0.284 | 3.58 | 0.385 | 5.23 | 0.144 | 0.859 | 0.102 | 0.617 | 0.168 | 14.9
O=C(CCl)Nc1ccc(Cl)cc1 | 2.78 | 9.92 | 1.48 | 3.01 | 2.8 | 8.96 | 4.6 | > 100 | 3.78 | 12.6 | 6.93 | 23 | 3.4 | 22.9
O=C1NC(=O)c2ccc([N+](=O)[O-])c3cccc1c23 | – | 33.7 | – | 6.11 | – | – | – | 26.1 | – | 31.8 | – | 50.9 | – | 32.1
NCCCC[C@@H]1NC(=O)[C@H]2CCCN2C(=O)[C@H](Cc2ccccc2)NC(=O)[C@H](Cc2ccccc2)CNC1=O | > 100 | > 100 | > 100 | > 100 | > 100 | > 100 | > 100 | > 100 | > 100 | > 100 | > 100 | > 100 | > 100 | > 100
COc1ccc(N2C(=O)C3c4[nH]c5ccc(C)cc5c4C4CCC(C(C)(C)C)CC4C3C2=O)cc1 (stereo not given) | – | 67.9 | – | > 100 | – | 33.2 | – | 25.1 | – | 36.5 | – | 29.5 | – | > 100
Cc1cn2c(/C=C3/C(=O)N(C)c4ccccc43)c(C)nc2s1 | 10.8 | > 100 | 5.04 | 30.2 | 3.4 | 41 | 29.2 | > 100 | 10.7 | 52.9 | 6.87 | 31.9 | 25.5 | > 100
CC(C)c1ccc(C(=O)Nc2sc3c(c2C(N)=O)CCC(=O)C3)cc1 | 0.352 | 1.94 | 0.316 | 1.56 | 0.975 | 5.57 | 0.71 | 13.3 | 0.359 | 1.49 | 2.62 | 8.02 | 0.515 | 2.35
CC1(C)C2CC(O)C1(C)CC2=O (stereo not given) | – | > 100 | – | > 100 | – | > 100 | – | > 100 | – | > 100 | – | > 100 | – | > 100
Cc1cc(C)c(C(=O)CC(=O)c2cccnc2)c(C)c1 | 2.25 | 33.9 | 13.4 | > 100 | 2.29 | 9.88 | 4.58 | > 100 | 6.93 | 45.7 | 9.04 | > 100 | 9.35 | > 100
COc1ccc(OC)c(/C=C/C(=O)N/N=C/c2ccc(Cl)cc2)c1 | 1.17 | > 100 | 0.0298 | 5.72 | 0.0364 | 0.215 | 0.35 | > 100 | 0.157 | 11.1 | 0.0928 | 9.81 | 0.488 | > 100
CC(=O)OC1Oc2ccccc2-c2oc(=O)c(-c3cc4ccc(N(C)C)cc4oc3=O)cc21 (stereo not given) | 3.67 | 20.7 | 11.9 | 30.6 | 6.11 | 34.7 | 10.3 | 37.7 | 12.4 | 27.3 | 13 | 45.5 | 19.9 | 69.6

SMILES | GI50 (BT-549 breast) [µM] | TGI (BT-549 breast) [µM] | GI50 (NCI-H522 lung) [µM] | TGI (NCI-H522 lung) [µM] | GI50 (NCI/ADR-RES ovarian) [µM] | TGI (NCI/ADR-RES ovarian) [µM] | GI50 (OVCAR-8 ovarian) [µM] | TGI (OVCAR-8 ovarian) [µM] | GI50 (SF-539 CNS) [µM] | TGI (SF-539 CNS) [µM] | GI50 (SK-OV-3 ovarian) [µM] | TGI (SK-OV-3 ovarian) [µM] | GI50 (SN12C renal) [µM] | TGI (SN12C renal) [µM]
Cc1cccc2nc(-c3ccccc3)cc(=O)n12 | – | > 100 | – | > 100 | – | > 100 | – | > 100 | – | > 100 | – | > 100 | – | > 100
CCCCN=C(N)c1ccc(OCCSCCOc2ccc(C(N)=NCCCC)cc2)cc1 | 1.97 | 13.3 | 2.25 | 12.8 | > 100 | > 100 | 10.5 | > 100 | 5.59 | > 100 | 2.54 | > 100 | 1.76 | > 100
CC12CCCC(O)C1CCC1=CC3(CCC12)SCCS3 (stereo not given) | – | > 10 | – | > 10 | – | > 10 | – | > 10 | – | – | – | > 10 | – | > 10
Nc1ncc(-c2cnn(CCO)c2)c2scc(-c3ccc(NC(=O)Nc4cccc(F)c4)cc3)c12 | 0.618 | 3.76 | 0.449 | 2.29 | 2.5 | 20.1 | 0.253 | 2.39 | – | – | 0.338 | 3.99 | 0.186 | 6.59
CCc1[nH]c(=O)nc(N)c1-c1ccc(N2CCCCC2)c([N+](=O)[O-])c1 | – | > 100 | – | > 100 | – | > 100 | – | > 100 | – | > 100 | – | > 100 | – | > 100
COC(=O)C(=O)C(C(=O)C(=O)Nc1ccccc1C(N)=O)c1nc2ccc(Cl)cc2[nH]c1=O (stereo not given) | – | > 100 | – | – | – | > 100 | – | > 100 | – | > 100 | – | > 100 | – | > 100
NC(N)=NCCCn1c2c(c3ccccc3c1=O)C(=O)c1ccccc1-2 | 2.28 | 5.51 | 2.45 | 11.1 | 38.6 | > 100 | 36 | > 100 | 0.369 | 2.14 | 34.2 | > 100 | 0.229 | 0.572
COc1cc(OC)c(/C=C/C(=O)c2c(OC)cccc2OC)c(OC)c1 | 0.3 | 1.84 | – | – | 0.387 | > 25.8 | 1.43 | > 100 | 0.533 | 4.41 | 0.79 | > 100 | 1.1 | > 100
CN(C)CCCn1c2c(c3ccccc3c1=O)C(=O)c1ccccc1-2 | 5.53 | 19.9 | 3.62 | > 100 | 1.85 | 7.13 | 0.336 | 1.34 | 1.86 | 9.14 | 4.14 | 73.8 | 0.907 | 3.07
COc1ccc(C(=O)COc2cccc(/C=C3\COc4ccc5ccccc5c4C3=O)c2)cc1 | 8.44 | > 100 | 8.13 | > 100 | 6.14 | > 100 | 4.5 | > 100 | 13.3 | > 100 | 82.2 | > 100 | 4.46 | > 100
O=C(c1cccc(O)c1O)c1cn(Cc2ccc(F)cc2)c2cccc(O)c12 | 7.72 | 21.6 | 1.38 | 8.08 | 2.59 | 15.2 | 3.56 | 18.9 | 2.49 | 11.2 | 4.49 | 16 | 6.37 | 21.7
NC(=S)N/N=C/c1ccc(OC(=O)COc2ccc(Cl)cc2)cn1 | 4.74 | > 100 | 0.718 | 40 | 3.17 | > 100 | 3.63 | > 100 | 3.64 | 22.8 | 40 | > 100 | 4.53 | > 100
Fc1cc(F)c(COc2cc(Cn3cnc4c(Cl)nc(Cl)nc43)ccc2C23CC4CC(CC(C4)C2)C3)cc1F | 11 | 24.5 | 2.29 | 5.56 | 18.3 | 37.1 | 18 | 38.4 | 17.9 | 32.3 | 22 | 43.3 | 11 | 24.9
CN(C)c1ccc(N)cc1 | 4.7 | 16.1 | 1.94 | 7.84 | 12.6 | 48 | 3.24 | 19.7 | 10.3 | 25.5 | 13.1 | 58 | 4.35 | 33.9
Cc1nc2ccccc2c(=O)n1NC(=O)c1ccccn1 | – | > 100 | – | > 100 | – | > 100 | – | > 100 | – | > 100 | – | > 100 | – | > 100
COc1cc2oc(-c3ccc(O)cc3)cc(=O)c2c(OC)c1OC | – | > 100 | – | > 100 | – | > 100 | – | > 100 | – | > 100 | – | – | – | > 100
NC(CC(=O)OCc1ccccc1)C(=O)OCc1ccccc1 (stereo not given) | – | – | – | > 100 | – | > 100 | – | > 100 | – | > 100 | – | – | – | > 100
CC(=O)OC1=NN=C2COC(c3ccccc3OC(C)=O)=NN2C1 | – | > 50 | – | > 50 | – | > 50 | – | – | – | > 50 | – | > 50 | – | > 50
Cc1cc(SCC(=O)c2ccccc2)nc2ccccc12 | – | > 100 | – | > 100 | – | > 100 | – | > 100 | – | > 100 | – | – | – | > 100
Cc1ccc(/C(=C/C=C(C#N)C#N)Sc2ccc(Cl)cc2)cc1 | 3.37 | 9.16 | – | – | 5.99 | 19.9 | 11.4 | 32.4 | 2.66 | 5.45 | 16.4 | 36.1 | 4.32 | 18
